According to patent US6337417B1, “N-phenyltetrahydrophthalamic acid derivatives, methods of producing same, and herbicides containing same as effective components” (Central Glass Co., Ltd., priority 1994, dated 2002):

Assays:
Assay type in all cases: in vivo
Parameters in all cases: key: 5: completely killed; 4: seriously injured; 3: considerably injured; 2: somewhat injured; 1: slightly injured; 0: not injured (normally grown)
garden radish [1] = assay: Experiment 8 foliage treatment: garden radish; conditions: foliage spray of wettable powder suspension, evaluated 4 weeks after treatment
Method: (§1) Upon seedling stage (two- or three-leaved stage) of rice, cockspur (Panicum crus-galli), garden radish, aobiyu (slender amaranth, Amaranthus viridis) and mehishiba (henry crabgrass, Digitaria cliaris) which were grown on a cultivated soil put in pots of 1/15500 ares, a selected compound obtained in a manner analogous to Example 14, in suspended wettable powder, was sprayed to each plant. After that, the pots were kept in a glass chamber to allow each plant to grow, and after the lapse of 4 weeks from the treatment with the selected compounds the herbicidal effects were evaluated. The evaluation of the herbicidal effects was similarly conducted as to that of Experiment 1.

garden radish [2] = assay: Experiment 5 foliage treatment: garden radish; conditions: foliage spray of wettable powder suspension, evaluated 4 weeks after treatment
Method: as §1, with “11,” for “14,”, “as” for “as to”

[3] = tested on: mehishiba (henry crabgrass, Digitaria cliaris); assay: Experiment 8 foliage treatment: mehishiba; conditions: foliage spray of wettable powder suspension, evaluated 4 weeks after treatment
Method: as §1

rice [4] = assay: Experiment 5 foliage treatment: rice; conditions: foliage spray of wettable powder suspension, evaluated 4 weeks after treatment
Method: as §1, with “11,” for “14,”, “as” for “as to”

[5] = tested on: cockspur (Panicum crus-galli); assay: Experiment 2 foliage treatment: cockspur; conditions: 4 weeks after treatment
Method: as §1, with “8,” for “14,”

[6] = tested on: mehishiba (henry crabgrass, Digitaria cliaris); assay: Experiment 2 foliage treatment: mehishiba; conditions: 4 weeks after treatment
Method: as §1, with “8,” for “14,”

rice [7] = assay: Experiment 8 foliage treatment: rice; conditions: foliage spray of wettable powder suspension, evaluated 4 weeks after treatment
Method: as §1

rice [8] = assay: Experiment 2 foliage treatment: rice; conditions: 4 weeks after treatment
Method: as §1, with “8,” for “14,”

garden radish [9] = assay: Experiment 2 foliage treatment: garden radish; conditions: 4 weeks after treatment
Method: as §1, with “8,” for “14,”

[10] = tested on: aobiyu (slender amaranth, Amaranthus viridis); assay: Experiment 8 foliage treatment: aobiyu; conditions: foliage spray of wettable powder suspension, evaluated 4 weeks after treatment
Method: as §1

[11] = tested on: mehishiba (henry crabgrass, Digitaria cliaris); assay: Experiment 5 foliage treatment: mehishiba; conditions: foliage spray of wettable powder suspension, evaluated 4 weeks after treatment
Method: as §1, with “11,” for “14,”, “as” for “as to”

[12] = tested on: cockspur (Panicum crus-galli); assay: Experiment 8 foliage treatment: cockspur; conditions: foliage spray of wettable powder suspension, evaluated 4 weeks after treatment
Method: as §1

[13] = tested on: aobiyu (slender amaranth, Amaranthus viridis); assay: Experiment 2 foliage treatment: aobiyu; conditions: 4 weeks after treatment
Method: as §1, with “8,” for “14,”

[14] = tested on: cockspur (Panicum crus-galli); assay: Experiment 5 foliage treatment: cockspur; conditions: foliage spray of wettable powder suspension, evaluated 4 weeks after treatment
Method: as §1, with “11,” for “14,”, “as” for “as to”

[15] = tested on: aobiyu (slender amaranth, Amaranthus viridis); assay: Experiment 5 foliage treatment: aobiyu; conditions: foliage spray of wettable powder suspension, evaluated 4 weeks after treatment
Method: as §1, with “11,” for “14,”, “as” for “as to”

[16] = tested on: nobie (barnyardgrass, Echinochloa spp.); assay: Experiment 4 flooded soil treatment: nobie; conditions: 4 weeks after treatment
Excerpt: (§2) Paddy soil (clay loam) was put into a pot so as to have a surface area of 1/15500 ares. Uniformly mixed seeds of several kinds of weeds, viz., nobie (barnyardgrass, Echinochloa spp.), broad-leaved weeds, hotarui (bulrush, Scirpus juncoides) and tamagayatsuri (small-flowered umbrellaplant, Cyperus difformis), were sown in the surface layer of the soil in each pot, and then paddy rice seedlings at the two- or three-leaved stage were transplanted into each pot to a depth of 2 cm, and water was fed into each pot so as to provide a 3 cm deep water layer on the soil surface. After 3 days, in other words at the initial stage of germination of nobie (barnyardgrass, Echinochloa spp.), a predetermined amount of a selected compound obtained in a manner analogous to Example 11 in the form of diluted aqueous solution was dropped into the water layer in each pot. After that, the pots were kept in a glass chamber to allow the paddy rice and the weeds to grow, and after the lapse of 4 weeks from the treatment with the selected compounds, the herbicidal effects and the degree of injury to the paddy rice were evaluated. The evaluation of the herbicidal effects was similarly conducted as to that of Experiment 1.

[17] = tested on: hotarui (bulrush, Scirpus juncoides); assay: Experiment 4 flooded soil treatment: hotarui; conditions: 4 weeks after treatment
Excerpt: as §2

paddy rice = assay: Experiment 4 flooded soil treatment: injury to paddy rice; conditions: 4 weeks after treatment
Excerpt: as §2

broad-leaved weeds = assay: Experiment 4 flooded soil treatment: broad-leaved weeds; conditions: 4 weeks after treatment
Excerpt: as §2

[18] = tested on: tamagayatsuri (small-flowered umbrellaplant, Cyperus difformis); assay: Experiment 4 flooded soil treatment: tamagayatsuri; conditions: 4 weeks after treatment
Excerpt: as §2

CCC(=O)Nc1ccc(Cl)c(Cl)c1 [Comparative agentB, Propanil, reference compound]
1: Herbicidal Effect garden radish (garden radish [1]; 40 g/10a) | Herbicidal Effect mehishiba ([3]; 80 g/10a) | Herbicidal Effect mehishiba ([6]; 40 g/10a) | Herbicidal Effect mehishiba ([6]; 80 g/10a) | Herbicidal Effect mehishiba ([11]; 40 g/10a) | Herbicidal Effect mehishiba ([11]; 80 g/10a) | Herbicidal Effect cockspur ([12]; 40 g/10a) | Herbicidal Effect cockspur ([12]; 80 g/10a)
3: Herbicidal Effect garden radish (garden radish [1]; 80 g/10a) | Herbicidal Effect garden radish (garden radish [2]; 40 g/10a) | Herbicidal Effect garden radish (garden radish [9]; 40 g/10a)
5: Herbicidal Effect aobiyu ([10]; 40 g/10a) | Herbicidal Effect aobiyu ([10]; 80 g/10a) | Herbicidal Effect aobiyu ([13]; 40 g/10a) | Herbicidal Effect aobiyu ([13]; 80 g/10a) | Herbicidal Effect aobiyu ([15]; 40 g/10a) | Herbicidal Effect aobiyu ([15]; 80 g/10a)
4: Herbicidal Effect garden radish (garden radish [2]; 80 g/10a) | Herbicidal Effect garden radish (garden radish [9]; 80 g/10a)
0: Herbicidal Effect mehishiba ([3]; 40 g/10a) | Herbicidal Effect rice (rice [4]; 40 g/10a) | Herbicidal Effect rice (rice [4]; 80 g/10a) | Herbicidal Effect cockspur ([5]; 40 g/10a) | Herbicidal Effect cockspur ([5]; 80 g/10a) | Herbicidal Effect rice (rice [7]; 40 g/10a) | Herbicidal Effect rice (rice [7]; 80 g/10a) | Herbicidal Effect rice (rice [8]; 40 g/10a) | Herbicidal Effect rice (rice [8]; 80 g/10a) | Herbicidal Effect cockspur ([14]; 40 g/10a) | Herbicidal Effect cockspur ([14]; 80 g/10a)

CCCCOC(=O)C1=C(C(=O)N(C(C)=O)c2cc(SCC(=O)OCC)c(Cl)cc2F)CCCC1 [compound 39]
5: Herbicidal Effect garden radish (garden radish [9]; 40 g/10a) | Herbicidal Effect garden radish (garden radish [9]; 80 g/10a) | Herbicidal Effect aobiyu ([13]; 40 g/10a) | Herbicidal Effect aobiyu ([13]; 80 g/10a)
1: Herbicidal Effect cockspur ([5]; 40 g/10a) | Herbicidal Effect cockspur ([5]; 80 g/10a) | Herbicidal Effect mehishiba ([6]; 40 g/10a) | Herbicidal Effect mehishiba ([6]; 80 g/10a) | Herbicidal Effect rice (rice [8]; 40 g/10a) | Herbicidal Effect rice (rice [8]; 80 g/10a)

CCCCOC(=O)CSc1cc(N(C(C)=O)C(=O)C2=C(C(=O)OCCCC)CCCC2)c(F)cc1Cl [compound 40]
5: Herbicidal Effect garden radish (garden radish [9]; 40 g/10a) | Herbicidal Effect garden radish (garden radish [9]; 80 g/10a) | Herbicidal Effect aobiyu ([13]; 40 g/10a) | Herbicidal Effect aobiyu ([13]; 80 g/10a)
1: Herbicidal Effect cockspur ([5]; 40 g/10a) | Herbicidal Effect cockspur ([5]; 80 g/10a) | Herbicidal Effect mehishiba ([6]; 40 g/10a) | Herbicidal Effect mehishiba ([6]; 80 g/10a) | Herbicidal Effect rice (rice [8]; 40 g/10a) | Herbicidal Effect rice (rice [8]; 80 g/10a)

C#CC(C)Oc1cc(N(C(=O)C2=C(C(=O)OCCOC)CCCC2)C(=O)c2ccc(Cl)nc2)c(F)cc1Cl (centres unmarked) [compound 69]
5: Herbicidal Effect garden radish (garden radish [2]; 80 g/10a) | Herbicidal Effect nobie ([16]; 3.13 g/10a) | Herbicidal Effect nobie ([16]; 6.25 g/10a) | Herbicidal Effect broad-leaved weed (broad-leaved weeds; 3.13 g/10a) | Herbicidal Effect broad-leaved weed (broad-leaved weeds; 6.25 g/10a) | Herbicidal Effect tamagayatsuri ([18]; 3.13 g/10a) | Herbicidal Effect tamagayatsuri ([18]; 6.25 g/10a) | Herbicidal Effect aobiyu ([15]; 40 g/10a) | Herbicidal Effect aobiyu ([15]; 80 g/10a)
4: Herbicidal Effect hotarui ([17]; 3.13 g/10a)
2: Herbicidal Effect mehishiba ([11]; 40 g/10a) | Herbicidal Effect mehishiba ([11]; 80 g/10a)
1: Herbicidal Effect rice (rice [4]; 40 g/10a) | Herbicidal Effect rice (rice [4]; 80 g/10a) | Herbicidal Effect cockspur ([14]; 40 g/10a) | Herbicidal Effect cockspur ([14]; 80 g/10a)
4.5: Herbicidal Effect garden radish (garden radish [2]; 40 g/10a) | Herbicidal Effect hotarui ([17]; 6.25 g/10a)
0.5: Injury of Paddy (paddy rice; 3.13 g/10a) | Injury of Paddy (paddy rice; 6.25 g/10a)

C#CC(C)Oc1cc(N(C(=O)C2=C(C(=O)OC)CCCC2)C(=O)c2cccnc2)c(Cl)cc1Cl (centres unmarked) [compound 70]
2: Herbicidal Effect mehishiba ([11]; 40 g/10a) | Herbicidal Effect mehishiba ([11]; 80 g/10a)
1: Herbicidal Effect rice (rice [4]; 40 g/10a) | Herbicidal Effect rice (rice [4]; 80 g/10a) | Herbicidal Effect cockspur ([14]; 40 g/10a) | Herbicidal Effect cockspur ([14]; 80 g/10a)
5: Herbicidal Effect garden radish (garden radish [2]; 80 g/10a) | Herbicidal Effect nobie ([16]; 3.13 g/10a) | Herbicidal Effect nobie ([16]; 6.25 g/10a) | Herbicidal Effect broad-leaved weed (broad-leaved weeds; 3.13 g/10a) | Herbicidal Effect broad-leaved weed (broad-leaved weeds; 6.25 g/10a) | Herbicidal Effect tamagayatsuri ([18]; 3.13 g/10a) | Herbicidal Effect tamagayatsuri ([18]; 6.25 g/10a) | Herbicidal Effect aobiyu ([15]; 40 g/10a) | Herbicidal Effect aobiyu ([15]; 80 g/10a)
4: Herbicidal Effect garden radish (garden radish [2]; 40 g/10a) | Herbicidal Effect hotarui ([17]; 3.13 g/10a) | Herbicidal Effect hotarui ([17]; 6.25 g/10a)
0: Injury of Paddy (paddy rice; 3.13 g/10a) | Injury of Paddy (paddy rice; 6.25 g/10a)

C#CC(C)Oc1cc(N(C(=O)C2=C(C(=O)OCCOC)CCCC2)C(=O)c2cccnc2)c(Cl)cc1Cl (centres unmarked) [compound 71]
1: Herbicidal Effect rice (rice [4]; 40 g/10a) | Herbicidal Effect rice (rice [4]; 80 g/10a) | Herbicidal Effect cockspur ([14]; 40 g/10a) | Herbicidal Effect cockspur ([14]; 80 g/10a)
4: Herbicidal Effect garden radish (garden radish [2]; 40 g/10a) | Herbicidal Effect hotarui ([17]; 3.13 g/10a) | Herbicidal Effect hotarui ([17]; 6.25 g/10a)
2: Herbicidal Effect mehishiba ([11]; 40 g/10a) | Herbicidal Effect mehishiba ([11]; 80 g/10a)
5: Herbicidal Effect garden radish (garden radish [2]; 80 g/10a) | Herbicidal Effect nobie ([16]; 3.13 g/10a) | Herbicidal Effect nobie ([16]; 6.25 g/10a) | Herbicidal Effect broad-leaved weed (broad-leaved weeds; 3.13 g/10a) | Herbicidal Effect broad-leaved weed (broad-leaved weeds; 6.25 g/10a) | Herbicidal Effect tamagayatsuri ([18]; 3.13 g/10a) | Herbicidal Effect tamagayatsuri ([18]; 6.25 g/10a) | Herbicidal Effect aobiyu ([15]; 40 g/10a) | Herbicidal Effect aobiyu ([15]; 80 g/10a)
0: Injury of Paddy (paddy rice; 3.13 g/10a) | Injury of Paddy (paddy rice; 6.25 g/10a)
